Experimental data: patent US20040063770A1, “Method for treating Alzheimer's disease” (Warner-Lambert Company, priority 2000, published 2004)
Where two headings read alike, the source gives them in different places.

Test system: Aβ secretion from CHO cells transfected with Swedish mutation Amyloid Precursor Protein (CHO-APPsw)
Experiment: Aβ secretion inhibition in CHO-APPsw cells, sandwich ELISA
Format: cell-based
Details: for IC50: read-out: Effect on Aβ Secretion (Concentration) (IC50)
Protocol: This is an […] assay designed to show the ability of test compounds to […]. CHO cells transfected with human AβPP bearing the Swedish mutation AβPP(CHO-AβPPsw) were treated with a farnesyl transferase inhibitor (FTI) (e.g., compounds from Table 1). The assay was carried out as follows:
CHO cells transfected with Swedish mutation Amyloid Precursor Protein (CHO-APPsw) were maintained in Dulbecco's Modified Eagle Medium (DMEM) media supplemented with nonessential amino acids (NEAA, Gibco-BRL Company) and 10% (v/v) heat inactivated Fetal Calf Serum (Hyclone Company), penicillin and streptomycin (Gibco-BRL).
The polyclonal antibodies were purified on a protein G-Sepharose column prior to use. Biotinylated monoclonal antibody 4G8 which recognizes amino acids 17-24 of Aβ (Senetek plc, St. Louis, Mo., USA) was used as the detection antibody. Alkaline phosphatase-conjugated strepavidin (Zymed Laboratories, San Francisco, Calif., USA) was used to bind the biotinylated detection antibody followed by Attophos (JBL Scientific, St. Luis Obispo, Calif., USA), the substrate for alkaline phosphatase. Fluorescence was measured using a Cytofluor plate reader (Perseptive Biosystems, Framingham, Mass., USA) set at 450 nm excitation and 560 emission. Synthetic Aβ40 and Aβ42 peptides used for standard curves were purchased from California Peptide (Napa, Calif., USA).

[1] = CHO-APPsw cells, serum free media overnight at 37° C., secreted Aβ by sandwich ELISA

Compound: O=C1/C(=C/c2cccs2)CCc2cc(OC(Cn3ccnc3)c3ccccc3)ccc21 (racemic) [Compound 3, E-(+/−)6-(2-Imidazol-1-yl-1-phenyl-ethoxy)-2-thiophen-2-ylmethylene-3,4-dihydro-2H-naphthalen-1-one]
- IC50 [1]: 4.5 µM

Compound: O=C1CCCc2cc(O[C@@H](Cn3ccnc3)c3ccccc3)ccc21 [Compound 5, (R) 6-(2-Imidazol-1-yl-1-phenyl-ethoxy)-3,4-dihydro-2H-naphthalen-1-one]
- IC50 (CHO): 1.5 µM

Compound: O=C1CCCc2c1ccc(OCCc1cncn1Cc1ccccc1)c2CCc1ccccc1 [Compound 15, 6-[2-(3-Benzyl-3H-imidazol-4-yl)-ethoxy]-5-phenethyl-3,4-dihydro-2H -naphthalen-1-one; trifluoro-acetate]
- IC50 (CHO): 1.5 µM

Compound: O=C1CCC(c2ccccc2)c2cc(OC(Cn3ccnc3)c3ccccc3)ccc21 (racemic) [Compound 6, 6-(2-Imidazol-1-yl-1-phenyl-ethoxy)-4-phenyl-3,4-dihydro-2H-naphthalen-1-one racemic]
- IC50 [1]: 3.1 µM

Compound: CC(C)(CNC(=O)CN(Cc1ccc(OCc2ccccc2)cc1)C(=O)[C@H](Cc1cnc[nH]1)NC(=O)OCc1ccccc1)c1ccccc1 [Compound 16, (S) [1-{(4-Benzyloxy-benzyl)-[(2-methyl-2-phenyl-propycarbamoyl)-methyl]-carbamoyl}-2-(3H-imidazol-4-yl)-ethyl]-carbamic acid benzyl ester]
- IC50 [1]: 50 µM

Compound: O=C1CCCc2c1ccc(S[C@H](Cn1ccnc1)c1ccccc1)c2CCc1ccccc1 [Compound 11, (S) 6-(2-Imidazol-1-yl-1-phenyl-ethylsulfanyl)-5-phenethyl-3,4-dihydro-2H-naphthalen-1-one]
- IC50 [1]: 1.5 µM

Compound: CC(C)OCc1c(OC(Cn2ccnc2)c2ccccc2)ccc2c1CCCC2=O (centres unmarked) [Compound 7, 6-(2-Imidazol-1-yl-1-phenyl-ethoxy)-5-isopropoxymethyl-3,4-dihydro-2H-naphthalen-1-one]
- IC50 (CHO): 37.9 µM

Compound: O=C1CCCc2c1ccc(O[C@H](Cn1ccnc1)c1ccccc1)c2CNc1ccccc1 [Compound 8, (S) 6-(2-Imidazol-1-yl-1-phenyl-ethoxy)-5-phenylaminomethyl-3,4-dihydro-2H-naphthalen-1-one]
- IC50 (CHO): 7.6 µM

Compound: CN1C(=O)CC(c2cccc(Cl)c2)c2cc(C(Nc3cncn3C)c3ccc(Cl)cc3)ccc21 (centres unmarked) [Compound 18, 1-Methyl-4-(3-chlorophenyl)-6-[(4-chlorophenyl)-(1-methylimidazol-5-yl)aminomethyl]-2,3-dihydroquinolin-2-one]
- IC50 [1]: 6 µM

Compound: O=C1CCCc2cc(OC(Cn3ccnc3)c3ccc(Cl)cc3)ccc21 (racemic) [Compound 4, 6-[1-(4-Chloro-phenyl)-2-imidazol-1-yl-ethoxy]-3,4-dihydro-2H-napththalen-1-one racemic]
- IC50 [1]: 25 µM

Compound: O=C1CCCc2cc(OCCc3c[nH]cn3)ccc21 [Compound 2, 6-[2-(1H-Imidazol-4-yl)-ethoxy]-3,4-dihydro-2H-naphthalen-1-one]
- IC50 [1]: 7.6 µM

Compound: Cc1ccc(CN(CC(=O)NCC2(c3ccccc3)CCC2)C(=O)[C@H](Cc2c[nH]cn2)NC(=O)OCc2ccccc2)cc1 [Compound 17, (S) [2-(1H-Imidazol-4-yl)-1-((4-methyl-benzyl)-{[(1-phenyl-cyclobutylmethyl)-carbamoyl]-methyl}-carbamoyl)-ethyl]-carbamic acid benzyl ester]
- IC50 [1]: 10 µM

Compound: O=C1CCCc2c1ccc(O[C@H](Cn1ccnc1)c1ccccc1)c2CCc1ccc(F)cc1 [Compound 9, (S) 6-(2-Imidazol-1-yl-1-phenyl-ethoxy)-5-[2-(4-fluorophenyl)ethyl]-3,4-dihydro-2H-naphthalen-1-one]
- IC50 (CHO): 4.5 µM

Compound: O=C1CCCc2c1ccc(OC(Cn1ccnc1)c1ccccc1)c2CCc1ccncc1 (centres unmarked) [Compound 13, 6-(2-Imidazol-1-yl-1-phenyl-ethoxy)-5-(2-pyridin-4-yl-ethyl)-3,4-dihydro-2H-naphthalen-1-one]
- IC50 (CHO): 11 µM

Compound: O=C1CCCc2c1ccc(O[C@H](Cn1ccnc1)c1ccccc1)c2CCc1ccccc1 [Compound 1, (S) 6-(2-Imidazol-1-yl-1-phenyl-ethoxy)-5-phenethyl-3,4-dihydro-2H-naphthalen-1-one]
- IC50 (CHO): 0.7 µM
- fold decrease in secreted Aβ (transfected CHO cells treated with 10 μM compound): 6.5 fold

Compound: O=C1CCCc2c1ccc(O[C@H](Cn1ccnc1)c1ccccc1)c2CCc1ccccn1 [Compound 12, (S) 6-(2-Imidazol-1-yl-1-phenyl-ethoxy)-5-(2-pyridin-2-yl-ethyl)-3,4-dihydro-2H-naphthalen-1-one]
- IC50 (CHO): 12 µM

Compound: O=C(CN(Cc1ccc(OCc2ccccc2)cc1)C(=O)[C@H](Cc1c[nH]cn1)NC(=O)OCc1ccccc1)NCCOCc1ccccc1 [Compound 19, (S) [1-{(4-Benzyloxy-benzyl)-[(2-benzyloxy-ethylcarbamoyl)-methyl]-carbamoyl}-2-(1H-imidazol-4-yl)ethyl]-carbamic acid benzyl ester]
- IC50 [1]: 10 µM

Compound: O=C(O)CCC(Oc1ccc2c(c1CCc1ccccc1)CCCC2=O)c1ccccc1 (centres unmarked) [Compound 14, 4-(5-Oxo-1-phenethyl-5,6,7,8-tetrahydro-naphthalen-2-yloxy)-4-phenyl-butyric acid]
- IC50 [1]: 13.8 µM

Compound: O=C1CCCc2c1ccc(O[C@H](Cn1ccnc1)c1ccccc1)c2CS(=O)(=O)c1ccccc1 [Compound 10, (S) 5-Benzenesulfonylmethyl-6-(2-imidazol-1-yl-1-phenyl-ethoxy)-3,4-dihydro-2H-naphthalen-1-one]
- IC50 (CHO): 25.4 µM
